Test system: PANK2 silenced human neuroblastoma IMR32 cells (PANK2−/−)
Experiment: Coenzyme A assay in PANK2 silenced cells (LC-MS quantification of free CoA)
Type: cell-based
Settings: compound added twice (24 h + 24 h), relative to 0.1% DMSO controls
Method: A human neuroblastoma IMR32 cell line (ATCC) with stably PANK2 silencing was obtained by lentiviral-delivered small hairpin RNA and cultured in MEM (Invitrogen) supplemented with 10% fetal bovine serum, 2 mM glutamine, 1% penicillin-streptomycin, 1 mM sodium pyruvate, 1 mM non essential amino acids and 1.5 g/l sodium bicarbonate.
For lentiviral shRNA expression, Human Emryonic Kidney HEK-293T cells (ATCC) were transfected with the appropriate pGFP-Lenti-shRNA constructs and packaging plasmids according to manufacturer's protocol (Origene Technologies, Inc.). Four different gene-specific shRNA expression vectors designed against multiple splice variants of PANK2 (Gene ID 80025) were used for transfection. A non-silencing shRNA construct (scrambled shRNA) and an empty vector expressing GFP alone were used as negative controls. The GFP tag subcloned into the lentiviral vectors was used to monitor the transfection efficiency.
IMR32 cells were plated on 150 cm dishes 48 h before transduction with lentiviral particles.
Three days after transduction medium was removed and replaced with fresh medium containing […] puromycin. Medium was replaced every 48 h. Levels of PANK2 expression on selected clones was assessed by Western Blot analysis.
To quantify CoA, PANK2^−/− IMR32 cells were plated on 12-well culture plates (Corning) at a density of 0.2×10^6 cells per well. After 72 h, compounds were freshly dissolved in DMSO and added to the culture medium to yield a final solvent concentration of 0.1% (v/v). Controls with medium containing 0.1% DMSO without test compounds were also included in each plate. Compound treated cells were incubated for 24 h at 37° C. Treatment was repeated after 24 h with newly dissolved compound and cells were further incubated at 37° C. for additional 24 h. Before LC-MS analysis of CoA levels, cells were harvested, counted, and collected in a 15 ml falcon tube and centrifuged at 200×g for 5 min at 4° C. Supernatant was removed and cell pellet was washed in 10 ml of ice-cold PBS. To further confirm that the numbers of cells in each sample were equivalent, an equal fraction of pellet was collected from each sample and subjected to protein determination analysis. After centrifugation and supernatant removal, the cell pellet was rapidly frozen in Liquid Nitrogen and stored at −80° C. until analysis.
Intracellular CoA levels were calculated considering an intracellular volume of 1 million cells=2 μl.
The 1×10^6 cellular pellet was extracted with 120 μl of aqueous 20% TFA. This solution was stirred for 2 min, sonicated in ultrasonic bath for 2 min, then stirred again for 1 min, and centrifuged for 15 min at 14000 g and at 4° C.
100 μL samples of supernatant were dried under N2 at 20° C. in the dark.
Samples were re-dissolved in 100 μl of 10 mM NH4^+ AcO^− buffer pH 5.1+IS (Dextrorphan 50 ng/ml), stirred for 2 min, sonicated in ultrasonic bath for 1 min, then stirred again for 1 min, and injected into LC-MS.
LC-MS/MS was performed using an Agilent HPLC (1100 Series, USA). The LC system was interfaced with an API-4000 Q-Trap triple quadrupole mass spectrometer (AB Sciex, Toronto, Canada) equipped with a TurbolonSpray ionization source operating in positive ion mode. Analyst™ software version 1.6 (AB Sciex, Toronto, Canada) was used for data acquisition and processing. CoA was separated using a Luna C18 column (2.0×50 mm; 5 μm particle size), column at 25° C. and flow rate of 0.2 ml/min. Injection volume was 15 μl. The mobile phases consisted of water containing 10 mM ammonium acetate pH 7 (mobile phase A) and MeCN-2-propanol 9:1 (mobile phase B). Elution was performed using a gradient starting at 2% B, holding at 2% B until 0.1 min, increasing to 98% B at 3.2 min, holding at 98% B until 4.5 min, returning to 2% B at 4.6 min and holding at 2% B until 7.5 min. Precursor ions and MRM transitions used were: CoA m/z 768.1→261.6 and 768.1→136.1. […]

Structure (SMILES): COC(=O)CCNC(=O)[C@@H]1O[P@@](=O)(OCOC(=O)C2(C(N)=O)CC2)OCC1(C)C [2-131, (((2S,4R)-4-((3-methoxy-3-oxopropyl)carbamoyl)-5,5-dimethy)-2-oxido-1,3,2-dioxaphosphinan-2-yl)oxy)methyl 1-carbamoylcyclopropane-1-carboxylate]
- PANK2−/− CoA (Fold Increase): fold increase in Coenzyme A (CoA) levels relative to controls: 1.44 Fold Increase

Structure (SMILES): COC(=O)CCNC(=O)[C@@H]1O[P@](=O)(OCOC(=O)c2cc(C)nn2C)OCC1(C)C [2-190, (((2R,4R)-4-((3-methoxy-3-oxopropyl)carbamoyl)-5,5-dimethyl-2-oxido-1,3,2-dioxaphosphinan-2-yl)oxy)methyl 1,3-dimethyl-1H-pyrazole-5-carboxylate]
- PANK2−/− CoA (Fold Increase): fold increase in Coenzyme A (CoA) levels relative to controls: 52.24 Fold Increase

Structure (SMILES): COC(=O)CCNC(=O)[C@@H]1O[P@@](=O)(N2CCS(=O)(=O)CC2)OCC1(C)C [compound 137, methyl 3-((2R,4R)-2-(1,1-dioxidothiomorpholino)-5,5-dimethyl-2-oxido-1,3,2-dioxaphosphinane-4-carboxamido) propanoate]
- PANK2−/− CoA (Fold Increase): fold increase in Coenzyme A (CoA) levels relative to controls: 1.76 Fold Increase

Structure (SMILES): COC(=O)[C@H](C)N[P@@]1(=O)OCC(C)(C)[C@H](C(=O)NCCC(=O)OCc2ccncc2)O1 (single isomer, unassigned) [compound 18, methyl ((2R,4R)-5,5-dimethyl-2-oxido-4-((3-oxo-3-(pyridin-4-ylmethoxy)propyl)carbamoyl)-1,3,2-dioxaphosphinan-2-yl)-L-alaninate or methyl ((2S,4R)-5,5-dimethyl-2-oxido-4-((3-oxo-3-(pyridin-4-ylmethoxy)propyl)carbamoyl)-1,3,2-dioxaphosphinan-2-yl)-L-alaninate]
- PANK2−/− CoA (Fold Increase): fold increase in Coenzyme A (CoA) levels relative to controls: 2.06 Fold Increase

Structure (SMILES): COC(=O)CCNC(=O)[C@@H]1O[P@](=O)(OCOC(=O)c2scnc2C)OCC1(C)C (single isomer, unassigned) [2-150]
- PANK2−/− CoA (Fold Increase): fold increase in Coenzyme A (CoA) levels relative to controls: 43.4 Fold Increase

Structure (SMILES): COC(=O)CCNC(=O)[C@@H]1OP(=O)(OCOC(=O)N[C@@H](CSC(=O)C(C)(C)C)C(=O)OC)OCC1(C)C (stereo partly drawn) [2-148, methyl N-(((((4R)-4-((3-methoxy-3-oxopropyl)carbamoyl)-5,5-dimethyl-2-oxido-1,3,2-dioxaphosphinan-2-yl)oxy)methoxy)carbonyl)-S-pivaloyl-L-cysteinate]
- PANK2−/− CoA (Fold Increase): fold increase in Coenzyme A (CoA) levels relative to controls: 4.19 Fold Increase

Structure (SMILES): COC(=O)CCNC(=O)[C@@H]1OP(=O)(N[C@H](C(=O)OC)C2CCCCC2)OCC1(C)C (stereo partly drawn) [compound 12, methyl 3-((4R)-2-(((S)-1-cyclohexyl-2-methoxy-2-oxoethyl)amino)-5,5-dimethyl-2-oxido-1,3,2-dioxaphosphinane-4-carboxamido)propanoate]
- PANK2−/− CoA (Fold Increase): fold increase in Coenzyme A (CoA) levels relative to controls: 1.28 Fold Increase

Structure (SMILES): COC(=O)CCNC(=O)[C@@H]1OP(=O)(OCOC(=O)c2ccno2)OCC1(C)C (stereo partly drawn) [Compound No. 2-141, (((4R)-4-((3-methoxy-3-oxopropyl)carbamoyl)-5,5-dimethyl-2-oxido-1,3,2-dioxaphosphinan-2-yl)oxy)methyl isoxazole-5-carboxylate]
- PANK2−/− CoA (Fold Increase): fold increase in Coenzyme A (CoA) levels relative to controls: 7.62 Fold Increase

Structure (SMILES): COC(=O)CCNC(=O)[C@@H]1O[P@](=O)(OCOC(=O)N[C@@H](CSC(=O)C(C)(C)C)C(=O)O)OCC1(C)C [2-201, N-(((((2R,4R)-4-((3-methoxy-3-oxopropyl)carbamoyl)-5,5-dimethyl-2-oxido-1,3,2-dioxaphosphinan-2-yl)oxy)methoxy)carbonyl)-S-pivaloyl-L-cysteine]
- PANK2−/− CoA (Fold Increase): fold increase in Coenzyme A (CoA) levels relative to controls: 0.92 Fold Increase

Structure (SMILES): COC(=O)CCNC(=O)[C@@H]1OP(=O)(OCCN2CCOCC2=O)OCC1(C)C (stereo partly drawn) [2-114, methyl 3-((4R)-5,5-dimethyl-2-oxido-2-(2-(3-oxomorpholino)ethoxy)-1,3,2-dioxaphosphinane-4-carboxamido)propanoate]
- PANK2−/− CoA (Fold Increase): fold increase in Coenzyme A (CoA) levels relative to controls: 1.87 Fold Increase

Structure (SMILES): COC(=O)CCNC(=O)[C@@H]1OP(=O)(OCOC(=O)NCCSC(C)=O)OCC1(C)C (stereo partly drawn) [2-136, methyl 3-((4R)-2-((((2-(acetylthio)ethyl)carbamoyl)oxy)methoxy)-5,5-dimethyl-2-oxido-1,3,2-dioxaphosphinane-4-carboxamido)propanoate]
- PANK2−/− CoA (Fold Increase): fold increase in Coenzyme A (CoA) levels relative to controls: 1.41 Fold Increase

Structure (SMILES): COC(=O)CCNC(=O)[C@@H]1O[P@](=O)(Oc2ccc(F)cc2)OCC1(C)C [2-179, methyl 3-((2R,4R)-2-(4-fluorophenoxy)-5,5-dimethyl-2-oxido-1,3,2-dioxaphosphinane-4-carboxamido)propanoate]
- PANK2−/− CoA (Fold Increase): fold increase in Coenzyme A (CoA) levels relative to controls: 87.22 Fold Increase

Structure (SMILES): CCOC(=O)CCNC(=O)[C@@H]1OP(=O)(OCOC(=O)C(C)(C)C)OCC1(C)C (single isomer, unassigned) [Compound No. 107]
- PANK2−/− CoA (Fold Increase): fold increase in Coenzyme A (CoA) levels relative to controls: 85.06 Fold Increase

Structure (SMILES): COC(=O)CCNC(=O)[C@@H]1OP(=O)(OCOC(=O)c2cc(C(C)(C)C)n[nH]2)OCC1(C)C (stereo partly drawn) [2-146, (((4R)-4-((3-methoxy-3-oxopropyl)carbamoyl)-5,5-dimethyl-2-oxido-1,3,2-dioxaphosphinan-2-yl)oxy)methyl 3-(tert-butyl)-1H-pyrazole-5-carboxylate]
- PANK2−/− CoA (Fold Increase): fold increase in Coenzyme A (CoA) levels relative to controls: 84.86 Fold Increase

Structure (SMILES): CC(C)(C)OC(=O)CCNC(=O)[C@@H]1OP(=O)(O)OCC1(C)C [Compound No. 2-111, tert-butyl 3-((4R)-2-hydroxy-5,5-dimethyl-2-oxido-1,3,2-dioxaphosphinane-4-carboxamido)propanoate]
- PANK2−/− CoA (Fold Increase): fold increase in Coenzyme A (CoA) levels relative to controls: 1.16 Fold Increase

Structure (SMILES): CC(C)(C)OC(=O)CCNC(=O)[C@@H]1O[P@](=O)(OCc2ccccc2)OCC1(C)C [Compound No. 63, tert-butyl 3-((4R)-2-(benzyloxy)-5,5-dimethyl-2-oxido-1,3,2-dioxaphosphinane-4-carboxamido)propanoate]
- PANK2−/− CoA (Fold Increase): fold increase in Coenzyme A (CoA) levels relative to controls: 2.24 Fold Increase

Structure (SMILES): COC(=O)CCNC(=O)[C@@H]1O[P@@](=O)(Oc2ccc(F)cc2)OCC1(C)C [2-178, methyl 3-((2S,4R)-2-(4-fluorophenoxy)-5,5-dimethyl-2-oxido-1,3,2-dioxaphosphinane-4-carboxamido)propanoate]
- PANK2−/− CoA (Fold Increase): fold increase in Coenzyme A (CoA) levels relative to controls: 2.3 Fold Increase

Structure (SMILES): COC(=O)CCNC(=O)[C@@H]1OP(=O)(N[C@@H](Cc2ccccc2)C(=O)OC)OCC1(C)C (stereo partly drawn) [compound 9, methyl ((4R)-4-((3-methoxy-3-oxopropyl)carbamoyl)-5,5-dimethyl-2-oxido-1,3,2-dioxaphosphinan-2-yl)-L-phenylalaninate]
- PANK2−/− CoA (Fold Increase): fold increase in Coenzyme A (CoA) levels relative to controls: 1.83 Fold Increase

Structure (SMILES): COC(=O)CCNC(=O)[C@@H]1OP(=O)(OCOC(=O)NCCOC(=O)[C@@H](NC(=O)OCc2ccccc2)C(C)C)OCC1(C)C (stereo partly drawn) [2-181, 2-((((((4R)-4-((3-methoxy-3-oxopropyl)carbamoyl)-5,5-dimethyl-2-oxido-1,3,2-dioxaphosphuian-2-yl)oxy)methoxy)carbonyl)amino) ethyl((benzyloxy)carbonyl)-L-valinate]
- PANK2−/− CoA (Fold Increase): fold increase in Coenzyme A (CoA) levels relative to controls: 49.59 Fold Increase

Structure (SMILES): COC(=O)CCNC(=O)[C@@H]1OP(=O)(OCOC(=O)N[C@@H](CSC(=O)C(C)(C)C)C(=O)OCc2ccccc2)OCC1(C)C (stereo partly drawn) [2-174, benzyl N-(((((4R)-4-((3-methoxy-3-oxopropyl)carbamoyl)-5,5-dimethyl-2-oxido-1,3,2-dioxaphosphinan-2-yl)oxy)methoxy)carbonyl)-S-pivaloyl-L-cysteinate]
- PANK2−/− CoA (Fold Increase): fold increase in Coenzyme A (CoA) levels relative to controls: 93.99 Fold Increase
